Tested on: 454973-116-R2-J3-PDC complex spheroid viability
Experiment: Anticancer human tumor 454973-116-R2-J3-PDC patient-derived pancreatic carcinoma cell line growth inhibition [POLQ]
Settings: for IC50: curve of first compound; for viability, T/C: stronger effect = lower value
Procedure, shortened: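 Complex spheroid viability model combining PDC tumour cells with endothelial (HUVEC) and MSC stromal cells. Novobiocin, ART-558 or RP6685 were tested singly and in combination with standard and investigational anticancer drugs. Each was titrated in half-log steps from near clinical Cmax, or from 10 microM where Cmax was unknown.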
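Further: spheroids exposed to drugs for seven days before measurement.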
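Wherever viability, T/C is given: percent viability relative to DMSO vehicle control wells taken as 100%.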

`COc1cccc2c1C(=O)c1c(O)c3c(c(O)c1C2=O)CC(O)(C(=O)CO)CC3OC1CC(N)C(O)C(C)O1` (configuration not stated) + Nc1ccc(C#CCN(C(=O)Cc2ncc(C(F)(F)F)cc2C(F)(F)F)c2ccc(F)cc2)nn1 was tested. Which IC50 (second compound 0.0316 µM) did it give?
Its IC50 is 37.4 nM.

And the IC50 (second compound 0.1 µM)?
Its IC50 is 36 nM.

What about the IC50 (second compound 0.316 µM) of the same molecule?
Its IC50 is less than 31.6 nM.

What about the IC50 (second compound 1 µM) of the same molecule?
Its IC50 is less than 31.6 nM.

What about the IC50 (second compound 3.16 µM) of the same molecule?
The IC50 was 32.2 nM.

And the IC50 (second compound 10 µM)?
The IC50 was less than 31.6 nM.

And the viability, T/C (second compound 0.0316 µM, first compound 0.0316 µM)?
Its viability, T/C is 55.6%.

And the viability, T/C (second compound 0.0316 µM, first compound 0.1 µM)?
The viability, T/C was 19.3%.

And the viability, T/C (second compound 0.0316 µM, first compound 0.316 µM)?
Its viability, T/C is 15.8%.

And the viability, T/C (second compound 0.0316 µM, first compound 1 µM)?
The viability, T/C was 5.05%.

And the viability, T/C (second compound 0.0316 µM, first compound 3.16 µM)?
Its viability, T/C is 0.67%.

What about the viability, T/C (second compound 0.0316 µM, first compound 10 µM) of the same molecule?
Its viability, T/C is 0.12%.

What about the viability, T/C (second compound 0.1 µM, first compound 0.0316 µM) of the same molecule?
The viability, T/C was 54.4%.

What about the viability, T/C (second compound 0.1 µM, first compound 0.1 µM) of the same molecule?
The viability, T/C was 20.7%.

And the viability, T/C (second compound 0.1 µM, first compound 0.316 µM)?
Its viability, T/C is 14.5%.

And the viability, T/C (second compound 0.1 µM, first compound 1 µM)?
The viability, T/C was 6.06%.

And the viability, T/C (second compound 0.1 µM, first compound 3.16 µM)?
The viability, T/C was 1.06%.

What about the viability, T/C (second compound 0.1 µM, first compound 10 µM) of the same molecule?
The viability, T/C was 0.39%.

What about the viability, T/C (second compound 0.316 µM, first compound 0.0316 µM) of the same molecule?
The viability, T/C was 50.5%.

And the viability, T/C (second compound 0.316 µM, first compound 0.1 µM)?
Its viability, T/C is 20.4%.

And the viability, T/C (second compound 0.316 µM, first compound 0.316 µM)?
Its viability, T/C is 11.7%.

And the viability, T/C (second compound 0.316 µM, first compound 1 µM)?
The viability, T/C was 4.87%.

What about the viability, T/C (second compound 0.316 µM, first compound 3.16 µM) of the same molecule?
Its viability, T/C is 0.69%.

What about the viability, T/C (second compound 0.316 µM, first compound 10 µM) of the same molecule?
Its viability, T/C is 0.21%.

And the viability, T/C (second compound 1 µM, first compound 0.0316 µM)?
Its viability, T/C is 49.6%.

What about the viability, T/C (second compound 1 µM, first compound 0.1 µM) of the same molecule?
Its viability, T/C is 19.9%.

And the viability, T/C (second compound 1 µM, first compound 0.316 µM)?
Its viability, T/C is 16.4%.

What about the viability, T/C (second compound 1 µM, first compound 1 µM) of the same molecule?
Its viability, T/C is 4.25%.

And the viability, T/C (second compound 1 µM, first compound 3.16 µM)?
The viability, T/C was 0.36%.

What about the viability, T/C (second compound 1 µM, first compound 10 µM) of the same molecule?
The viability, T/C was 0.66%.

What about the viability, T/C (second compound 3.16 µM, first compound 0.0316 µM) of the same molecule?
The viability, T/C was 51.6%.

And the viability, T/C (second compound 3.16 µM, first compound 0.1 µM)?
The viability, T/C was 17.8%.

And the viability, T/C (second compound 3.16 µM, first compound 0.316 µM)?
Its viability, T/C is 14.6%.

What about the viability, T/C (second compound 3.16 µM, first compound 1 µM) of the same molecule?
Its viability, T/C is 3.6%.

And the viability, T/C (second compound 3.16 µM, first compound 3.16 µM)?
The viability, T/C was 0.55%.

And the viability, T/C (second compound 3.16 µM, first compound 10 µM)?
The viability, T/C was 0.26%.

What about the viability, T/C (second compound 10 µM, first compound 0.0316 µM) of the same molecule?
The viability, T/C was 48.2%.

And the viability, T/C (second compound 10 µM, first compound 0.1 µM)?
The viability, T/C was 12.7%.

And the viability, T/C (second compound 10 µM, first compound 0.316 µM)?
The viability, T/C was 10.2%.

What about the viability, T/C (second compound 10 µM, first compound 1 µM) of the same molecule?
The viability, T/C was 3.36%.

What about the viability, T/C (second compound 10 µM, first compound 3.16 µM) of the same molecule?
The viability, T/C was 0.54%.

And the viability, T/C (second compound 10 µM, first compound 10 µM)?
The viability, T/C was 0.27%.

Source: PubChem BioAssay AID1963846 (Molecular Pharmacology Branch, DTP, NCI, 2024)
